Measured values published in patent US20260055089A1, “NOVEL SUBSTITUTED BENZOTHIOPHENE-6-CARBOXYLIC ACID DERIVATIVES, PROCESSES FOR THEIR PREPARATION AND THERAPEUTIC USES THEREOF” (SANOFI, priority 2022, published 2026).

Biological target: T1, ERα (Homo sapiens, UniProt P03372)
T1 construct: host or cells: MCF7
T1 sequence (P03372 1-595): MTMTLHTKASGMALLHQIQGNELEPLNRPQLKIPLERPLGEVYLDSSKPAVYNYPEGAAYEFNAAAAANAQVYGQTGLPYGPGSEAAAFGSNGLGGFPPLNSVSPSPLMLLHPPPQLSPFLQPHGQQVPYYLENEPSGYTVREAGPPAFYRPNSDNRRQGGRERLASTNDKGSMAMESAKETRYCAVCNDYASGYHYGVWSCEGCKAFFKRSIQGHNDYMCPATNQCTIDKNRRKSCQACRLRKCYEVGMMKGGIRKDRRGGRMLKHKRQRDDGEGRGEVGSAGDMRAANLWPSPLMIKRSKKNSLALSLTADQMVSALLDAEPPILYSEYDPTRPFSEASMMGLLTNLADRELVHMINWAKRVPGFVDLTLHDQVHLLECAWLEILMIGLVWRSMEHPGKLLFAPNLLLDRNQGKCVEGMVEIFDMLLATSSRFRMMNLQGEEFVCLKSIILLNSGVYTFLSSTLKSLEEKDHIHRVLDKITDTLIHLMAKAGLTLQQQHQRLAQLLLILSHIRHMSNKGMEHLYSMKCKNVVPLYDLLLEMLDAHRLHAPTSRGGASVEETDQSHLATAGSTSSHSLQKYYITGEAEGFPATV
Experiment: Estrogen receptor degradation activity: breast cancer cell ERα in cell western assay
Assay type: cell-based
Conditions: MCF7 cells; for % Degradation At 0.3 μM: 4 hours, relative to fulvestrant 0.1 μM positive control; for DC50: 4 hours post compound addition, concentration which degrades 50% of the estrogen receptor, read-out: Degradation IC50
Procedure: Test: Estrogen Receptor Degradation Activity
Said test involves measuring the in vitro degradation activity of the compounds of the table 1.
The measurements of the degradation activities were made using a breast cancer cell ERα in cell western assay as described hereunder.
MCF7 cells (ATCC) were seeded in 384 wells microplate (collagen coated) at a concentration of 10000 cells/30 μL per well in red phenol free MEM alpha medium (invitrogen) containing 5% charcoal dextran striped FBS. The following day, 9 points serial 1:5 dilution of each compound was added to the cells in 2.5 μL at final concentrations ranging from 0.3-0.0000018 μM (in table 2), or 0.1 μM for fulvestrant (using as positive control). At 4 hours post compound addition the cells were fixed by adding 25 μL of formalin (final concentration 5% formalin containing 0.1% triton) for 10 minutes at RT and then washed twice with PBS. Then, 50 μL of LI-COR blocking buffer containing 0.1% Triton was added to plate for 30 minutes at RT. LI-COR blocking buffer was removed and cells were incubated overnight at cold room with 50 μL anti-ER rabbit monoclonal antibody (Thermo scientific MA1-39540) diluted at 1:1000 in LI-COR blocking buffer containing 0.1% tween-20. Wells which were treated with blocking buffer but no antibody were used as background control. Wells were washed twice with PBS (0.1% tween-20) and incubated at 37° C. for 60 minutes in LI-COR (0.1% tween-20) containing goat anti-rabbit antibody Alexa 488 (1:1000) and Syto-64 a DNA dye (2 μM final concentration). Cells were then washed 3 times in PBS and scanned in ACUMEN explorer (TTP-Labtech). Integrated intensities in the green fluorescence and red fluorescence were measured to determine the levels of ERα and DNA respectively.
The degradation activity with respect to estrogen receptors in this test is given by the concentration which degrades 50% of the estrogen receptor (or ICso) in nM.
The % of ERα levels decrease were determined as follows: % inhibition=100*(1−(sample−fulvestrant:DMSO−fulvestrant)).

Row | % Degradation At 0.3 μM | DC50 | SMILES
1 | 92% | 2 nM | CC(F)(F)c1cc(F)ccc1-c1sc2cc(C(=O)O)ccc2c1Oc1ccc(NC2CN(CCCF)C2)cc1.Cl [Compound 1, 2-(2-(1,1-difluoroethyl)-4-fluorophenyl)-3-(4-((1-(3-fluoropropyl)azetidin-3-yl)amino)phenoxy)benzo[b]thiophene-6-carboxylic acid, hydrochloride]
2 | 93% | 0.9 nM | CC(F)(F)c1cc(F)ccc1-c1sc2cc(C(=O)O)ccc2c1Oc1ccc(OC2CN(CCCF)C2)cc1 [Compound 2, 2-(2-(1,1-difluoroethyl)-4-fluorophenyl)-3-(4-((1-(3-fluoropropyl)azetidin-3-yl)oxy)phenoxy)benzo[b]thiophene-6-carboxylic acid]
3 | 85% | 5 nM | CC(F)(F)c1cc(F)ccc1-c1sc2cc(C(=O)O)ccc2c1Oc1ccc(O[C@H]2CCN(CCCF)C2)cc1 [Compound 3, (S)-2-(2-(1,1-difluoroethyl)-4-fluorophenyl)-3-(4-((1-(3-fluoropropyl)pyrrolidin-3-yl)oxy)phenoxy)benzo[b]thiophene-6-carboxylic acid]
